Our source for the inhibition and ΔTm values is ChEMBL document CHEMBL4376829, “Discovery and biological evaluation of vinylsulfonamide derivatives as highly potent, covalent TEAD autopalmitoylation inhibitors” (Eur J Med Chem, 2019).

Usually inhibition stands for the drop in the measured response relative to a control, in per cent. A word on the ΔTm: it is the change in melting temperature against a reference sample.

Experiment [1] concerns the target Death-associated protein kinase 1 (Homo sapiens) (UniProt P53355). As to the kind of experiment: Inhibition of recombinant human DAPK1 (1 to 296 residues) at 10 uM using KKLNRTLSFAEPG as substrate after 40 mins by in presence of [gamma33P]ATP by scintillation counting method relative to control.
The target in experiment [2] is SRSF protein kinase 1 (Homo sapiens) (UniProt Q96SB4). The experiment in a line: Inhibition of recombinant human SRPK1 (2 to end residues) at 10 uM using RSRSRSRSRSRSRSR as substrate measured after 40 mins in presence of [gamma33P]ATP by scintillation counting method relative to control.
Chain of SRSF protein kinase 1 (Homo sapiens) (Q96SB4 whole entry): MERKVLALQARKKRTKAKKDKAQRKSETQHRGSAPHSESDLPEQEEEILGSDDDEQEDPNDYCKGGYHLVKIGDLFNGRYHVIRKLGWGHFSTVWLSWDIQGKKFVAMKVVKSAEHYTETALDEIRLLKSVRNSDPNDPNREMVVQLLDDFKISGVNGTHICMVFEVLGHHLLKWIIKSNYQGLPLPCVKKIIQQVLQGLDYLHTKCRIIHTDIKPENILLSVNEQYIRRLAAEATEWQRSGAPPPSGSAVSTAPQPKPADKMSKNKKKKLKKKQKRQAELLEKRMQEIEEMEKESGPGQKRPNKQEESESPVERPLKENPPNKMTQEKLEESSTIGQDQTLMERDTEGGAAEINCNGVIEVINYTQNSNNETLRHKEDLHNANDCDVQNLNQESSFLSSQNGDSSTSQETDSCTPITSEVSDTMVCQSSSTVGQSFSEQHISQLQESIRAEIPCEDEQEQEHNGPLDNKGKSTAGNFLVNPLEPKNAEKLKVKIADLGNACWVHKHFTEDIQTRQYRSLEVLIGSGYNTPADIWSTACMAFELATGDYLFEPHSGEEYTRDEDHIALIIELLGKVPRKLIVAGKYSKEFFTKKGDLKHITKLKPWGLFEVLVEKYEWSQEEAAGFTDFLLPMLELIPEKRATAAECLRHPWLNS
Experiment [3] has as its target Myosin light chain kinase 2, skeletal/cardiac muscle (Homo sapiens) (UniProt Q9H1R3). The experiment in a line: Inhibition of recombinant full-length human MYLK2 at 10 uM using KKLNRTLSFAEPG as substrate measured after 40 mins in presence of [gamma33P]ATP by scintillation counting method relative to control.
Experiment [4] deals with Histone-arginine methyltransferase CARM1 (Homo sapiens) (UniProt Q86X55). The experiment in a line: Inhibition of human PRMT4 at 10 uM relative to control.
Chain of Histone-arginine methyltransferase CARM1 (Homo sapiens) (Q86X55 whole entry): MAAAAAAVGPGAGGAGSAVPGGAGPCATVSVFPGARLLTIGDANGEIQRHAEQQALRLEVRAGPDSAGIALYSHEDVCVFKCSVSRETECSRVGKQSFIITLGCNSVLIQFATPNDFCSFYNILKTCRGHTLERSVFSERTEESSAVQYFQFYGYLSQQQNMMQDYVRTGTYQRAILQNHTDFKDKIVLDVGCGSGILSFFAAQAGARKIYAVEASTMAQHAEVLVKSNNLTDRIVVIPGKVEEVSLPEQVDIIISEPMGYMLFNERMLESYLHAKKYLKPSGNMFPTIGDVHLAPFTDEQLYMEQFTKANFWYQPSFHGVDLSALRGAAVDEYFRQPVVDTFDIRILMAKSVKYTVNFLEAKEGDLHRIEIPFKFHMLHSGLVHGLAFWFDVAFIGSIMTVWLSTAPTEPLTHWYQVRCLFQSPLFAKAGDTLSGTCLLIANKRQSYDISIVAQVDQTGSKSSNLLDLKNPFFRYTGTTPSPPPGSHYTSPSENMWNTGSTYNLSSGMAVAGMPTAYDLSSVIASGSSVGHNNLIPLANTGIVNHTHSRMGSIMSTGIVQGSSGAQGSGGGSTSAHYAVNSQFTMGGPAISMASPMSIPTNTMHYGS
Experiment [5] addresses cGMP-dependent protein kinase 1 (Homo sapiens) (UniProt Q13976). The experiment in a line: Inhibition of full-length recombinant human PKG1alpha at 10 uM using RRRLSFAEPG as substrate after 40 mins by in presence of [gamma33P]ATP by scintillation counting method relative to control.
Experiment [6] has as its system Transcriptional enhancer factor TEF-3 (Homo sapiens), Q15561 [C335A]. The experiment in a line: Binding affinity to TEAD4-YBD C335A mutant (unknown origin) assessed as change in melting temperature by SYPRO-dye based thermal shift assay.

Chain of Death-associated protein kinase 1 (Homo sapiens) (P53355 whole entry, looked up, the tested form may be a part): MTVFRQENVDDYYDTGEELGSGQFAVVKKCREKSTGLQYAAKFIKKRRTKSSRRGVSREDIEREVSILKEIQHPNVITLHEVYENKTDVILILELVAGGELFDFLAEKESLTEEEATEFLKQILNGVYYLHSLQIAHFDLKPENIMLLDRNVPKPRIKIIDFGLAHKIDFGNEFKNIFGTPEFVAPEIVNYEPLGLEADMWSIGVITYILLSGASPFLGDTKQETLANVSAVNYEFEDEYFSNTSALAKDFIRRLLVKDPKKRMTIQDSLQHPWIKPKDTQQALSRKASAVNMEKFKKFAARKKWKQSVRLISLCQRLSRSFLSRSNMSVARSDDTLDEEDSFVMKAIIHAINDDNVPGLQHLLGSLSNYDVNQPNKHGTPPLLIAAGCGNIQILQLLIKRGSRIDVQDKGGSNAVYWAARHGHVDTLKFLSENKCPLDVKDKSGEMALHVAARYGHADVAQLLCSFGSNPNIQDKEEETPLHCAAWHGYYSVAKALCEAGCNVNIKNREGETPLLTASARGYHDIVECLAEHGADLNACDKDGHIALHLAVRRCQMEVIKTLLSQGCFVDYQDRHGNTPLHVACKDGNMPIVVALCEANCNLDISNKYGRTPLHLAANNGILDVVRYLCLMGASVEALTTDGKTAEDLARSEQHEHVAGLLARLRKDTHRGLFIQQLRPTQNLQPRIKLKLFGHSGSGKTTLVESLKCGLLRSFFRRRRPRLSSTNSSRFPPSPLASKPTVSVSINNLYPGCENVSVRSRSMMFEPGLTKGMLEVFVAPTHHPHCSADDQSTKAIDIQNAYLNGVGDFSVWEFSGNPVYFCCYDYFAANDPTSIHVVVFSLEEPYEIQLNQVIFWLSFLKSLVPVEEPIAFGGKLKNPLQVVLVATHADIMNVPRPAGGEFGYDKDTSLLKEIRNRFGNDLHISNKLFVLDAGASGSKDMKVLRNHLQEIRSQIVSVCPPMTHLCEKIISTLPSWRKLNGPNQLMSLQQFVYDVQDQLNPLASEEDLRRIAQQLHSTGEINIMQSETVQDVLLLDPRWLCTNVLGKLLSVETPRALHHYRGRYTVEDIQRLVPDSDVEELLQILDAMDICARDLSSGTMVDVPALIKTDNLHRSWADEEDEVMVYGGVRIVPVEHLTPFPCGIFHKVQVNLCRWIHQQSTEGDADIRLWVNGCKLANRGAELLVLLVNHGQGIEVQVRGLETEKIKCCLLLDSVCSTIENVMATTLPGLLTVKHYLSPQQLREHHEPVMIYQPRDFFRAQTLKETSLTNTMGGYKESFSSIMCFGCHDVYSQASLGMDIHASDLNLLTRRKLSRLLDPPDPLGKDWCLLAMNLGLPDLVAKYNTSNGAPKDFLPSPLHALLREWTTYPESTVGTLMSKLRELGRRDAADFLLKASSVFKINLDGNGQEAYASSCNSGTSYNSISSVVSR
Chain of Transcriptional enhancer factor TEF-3 (Homo sapiens), Q15561 [C335A] (Q15561 whole entry C335A): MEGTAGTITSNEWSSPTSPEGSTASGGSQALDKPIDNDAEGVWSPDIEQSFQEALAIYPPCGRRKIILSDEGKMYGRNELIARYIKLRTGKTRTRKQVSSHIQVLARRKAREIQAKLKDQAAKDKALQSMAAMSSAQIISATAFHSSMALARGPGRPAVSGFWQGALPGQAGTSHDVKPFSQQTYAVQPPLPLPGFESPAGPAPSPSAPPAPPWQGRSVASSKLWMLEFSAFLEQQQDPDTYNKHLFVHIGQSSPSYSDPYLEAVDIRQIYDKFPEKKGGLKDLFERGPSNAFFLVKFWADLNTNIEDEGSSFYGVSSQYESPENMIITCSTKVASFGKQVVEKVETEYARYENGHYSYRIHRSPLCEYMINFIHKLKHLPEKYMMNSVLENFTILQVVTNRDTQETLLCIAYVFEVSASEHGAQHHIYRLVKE
Chain of Myosin light chain kinase 2, skeletal/cardiac muscle (Homo sapiens) (Q9H1R3 whole entry): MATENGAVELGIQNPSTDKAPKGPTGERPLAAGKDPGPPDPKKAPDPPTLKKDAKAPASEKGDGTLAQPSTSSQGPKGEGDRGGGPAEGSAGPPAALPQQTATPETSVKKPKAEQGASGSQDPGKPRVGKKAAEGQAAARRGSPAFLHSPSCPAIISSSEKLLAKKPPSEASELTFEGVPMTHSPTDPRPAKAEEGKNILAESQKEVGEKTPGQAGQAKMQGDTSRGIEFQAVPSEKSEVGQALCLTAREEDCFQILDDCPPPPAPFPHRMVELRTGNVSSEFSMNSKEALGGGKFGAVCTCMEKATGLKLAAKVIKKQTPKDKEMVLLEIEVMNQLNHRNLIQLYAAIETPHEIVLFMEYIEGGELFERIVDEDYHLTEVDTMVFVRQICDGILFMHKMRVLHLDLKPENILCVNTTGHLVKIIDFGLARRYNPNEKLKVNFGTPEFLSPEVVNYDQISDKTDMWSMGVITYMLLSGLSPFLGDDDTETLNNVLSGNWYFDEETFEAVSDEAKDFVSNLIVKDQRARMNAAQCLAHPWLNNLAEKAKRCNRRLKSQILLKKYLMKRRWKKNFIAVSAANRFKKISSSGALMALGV
Chain of cGMP-dependent protein kinase 1 (Homo sapiens) (Q13976 whole entry): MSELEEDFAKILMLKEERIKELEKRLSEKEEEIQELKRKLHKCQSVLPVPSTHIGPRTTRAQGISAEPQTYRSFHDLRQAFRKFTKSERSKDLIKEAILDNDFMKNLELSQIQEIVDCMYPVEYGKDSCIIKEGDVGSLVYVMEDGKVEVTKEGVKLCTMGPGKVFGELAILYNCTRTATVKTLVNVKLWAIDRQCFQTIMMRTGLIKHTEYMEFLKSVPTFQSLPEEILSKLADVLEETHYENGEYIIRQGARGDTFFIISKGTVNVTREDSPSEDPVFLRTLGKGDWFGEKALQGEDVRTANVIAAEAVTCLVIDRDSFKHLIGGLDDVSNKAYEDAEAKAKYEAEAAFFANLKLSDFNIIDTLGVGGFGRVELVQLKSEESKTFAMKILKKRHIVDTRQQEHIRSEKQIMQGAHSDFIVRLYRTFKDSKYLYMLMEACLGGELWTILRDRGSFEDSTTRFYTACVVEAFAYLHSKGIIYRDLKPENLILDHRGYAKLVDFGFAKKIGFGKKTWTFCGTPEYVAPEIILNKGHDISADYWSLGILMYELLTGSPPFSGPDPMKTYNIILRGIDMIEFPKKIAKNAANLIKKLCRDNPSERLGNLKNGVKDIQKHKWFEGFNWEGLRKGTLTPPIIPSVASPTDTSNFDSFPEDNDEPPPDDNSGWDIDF

In the case of `C=CS(=O)(=O)Nc1ccc(Cc2ccc3ccccc3c2)cc1`, the inhibition in experiment [1] is 8%; in experiment [2], 8%; in experiment [3], 6%; in experiment [4], 5%; in experiment [5], -6%. Besides, the shift in melting temperature (ΔTm) in experiment [6] was determined as 5.2 °C.
